In assay [1] the target is T1, DNA topoisomerase I/type IB small subunit (Leishmania donovani, UniProt E9B7X3+E9BRC0).
T1 sequence (E9B7X3 whole entry): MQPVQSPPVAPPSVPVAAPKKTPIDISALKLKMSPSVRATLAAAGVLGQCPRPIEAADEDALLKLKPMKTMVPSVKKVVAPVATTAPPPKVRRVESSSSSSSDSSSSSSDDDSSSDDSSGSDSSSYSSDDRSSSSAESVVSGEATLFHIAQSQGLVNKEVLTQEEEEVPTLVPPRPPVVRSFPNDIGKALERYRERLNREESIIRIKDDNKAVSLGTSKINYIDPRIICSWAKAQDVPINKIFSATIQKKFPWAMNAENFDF
T1 sequence (E9BRC0 whole entry): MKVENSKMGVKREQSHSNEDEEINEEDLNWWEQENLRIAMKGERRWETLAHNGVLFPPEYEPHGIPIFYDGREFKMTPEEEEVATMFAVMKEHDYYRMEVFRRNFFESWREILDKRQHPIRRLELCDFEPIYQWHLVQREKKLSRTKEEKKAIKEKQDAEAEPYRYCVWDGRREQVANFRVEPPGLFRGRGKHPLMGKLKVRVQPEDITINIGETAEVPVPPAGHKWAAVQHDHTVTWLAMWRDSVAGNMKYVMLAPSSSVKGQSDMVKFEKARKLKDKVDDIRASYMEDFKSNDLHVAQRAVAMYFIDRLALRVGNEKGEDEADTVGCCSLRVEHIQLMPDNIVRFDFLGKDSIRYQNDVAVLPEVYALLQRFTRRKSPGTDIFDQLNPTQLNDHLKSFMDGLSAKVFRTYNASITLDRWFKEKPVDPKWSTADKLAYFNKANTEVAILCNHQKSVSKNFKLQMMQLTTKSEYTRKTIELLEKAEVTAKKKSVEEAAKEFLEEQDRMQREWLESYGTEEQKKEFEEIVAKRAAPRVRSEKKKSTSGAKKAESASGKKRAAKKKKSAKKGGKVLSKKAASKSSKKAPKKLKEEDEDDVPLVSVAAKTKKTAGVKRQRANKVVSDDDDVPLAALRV
The experiment in a line: Preincubation Relaxation Assay. To be noted: pH 7.5. Here is the method:
In the preincubation assay, CPT concentrations were 50 and 100 μM, whereas various concentrations of compounds were 25, 50 and 100 μM. LdTOP1LS was preincubated with compounds 3a-d at different concentrations for 5 min at 37 °Cbefore the addition of substrate DNA. Relaxation assay was carried out as described previously with LdTOPILS serially diluted in the relaxation buffer (25mM Tris-HCl pH 7.5, 5% glycerol, 0.5mM DTT, 10mM MgCl2, 2.5mM EDTA and 150 mg/ml BSA) supercoiled pBluescript (SK ) DNA and 50mM KCl. The amount of supercoiled monomer DNA band fluorescence after ethidium bromide (EtBr) (0.5 mg/ml) staining was quantitated by using GEL Doc 2000 from Biorad (Hercules, CA, USA).

The target in assay [2] is T1, DNA topoisomerase I/type IB small subunit. Briefly: Stimultaneous Relaxation Assay. To be noted: pH 7.5. Here is the method: In simultaneous relaxation assay, CPT concentrations were 50 and 100 μM, whereas concentration of compounds were 50, 100 and 200 μM. Relaxation assay was carried out as described previously with LdTOPILS serially diluted in the relaxation buffer (25mM Tris-HCl pH 7.5, 5% glycerol, 0.5mM DTT, 10mM MgCl2, 2.5mM EDTA and […]) supercoiled pBluescript (SK ) DNA and 50mM KCl. The amount of supercoiled monomer DNA band fluorescence after ethidium bromide (EtBr) ([…]) staining was quantitated by using GEL Doc 2000 from Biorad (Hercules, CA, USA).

Our source for the IC50 values is BindingDB's records for doi:10.3109/14756366.2013.765413 (Karunya University, 2014).

In general, IC50 refers to the concentration that gives 50% inhibition. A higher IC50 goes with weaker potency in that assay. Consider `O=C1C(O)=C(C(C2=C(O)C(=O)c3ccccc3C2=O)c2ccccc2)C(=O)c2ccccc21` [Bi-lawsone analog, 3a], for which the IC50 in assay [1] is 16 µM; in assay [2], 51 µM.
In assay [2], `CN(C)c1ccc(C(C2=C(O)C(=O)c3ccccc3C2=O)C2=C(O)C(=O)c3ccccc3C2=O)cc1` [Bi-lawsone analog, 3b] displayed an IC50 of 37.5 µM.
In turn, `COc1cc(C(C2=C(O)C(=O)c3ccccc3C2=O)C2=C(O)C(=O)c3ccccc3C2=O)ccc1O` [Bi-lawsone analog, 3c] returned a half-inhibitory concentration (IC50) in assay [1] of 14 µM.
`O=C1C(O)=C(C(C2=C(O)C(=O)c3ccccc3C2=O)c2ccc(O)cc2)C(=O)c2ccccc21` [Bi-lawsone analog, 3d]: the IC50 in assay [1] came to 13 µM; in assay [2], 70 µM.
